Laboratory results: PubChem BioAssay AID248 (DTP/NCI, 2004)
Several values for one entry are separate records, joined by “and”; a condition that tells them apart may be missing. Equal values may be shown once. Toxic doses and inconclusive results are not listed. Cut-off read from the data, not from the text of the source: active = T/C of 150% or more; inactive = T/C below 125%.

Test system: L1210 leukemia ip in BDF1 mice, survival T/C
Assay: NCI In Vivo Anticancer Drug Screen. Data for tumor model L1210 Leukemia (intraperitoneal) in B6D2F1 (BDF1) mice
Settings: higher = longer survival
Method in brief: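 Tumor was transplanted into mice, which were then dosed with test compound or vehicle alone. Survival was recorded for each group, and the treated figure was expressed relative to the control figure.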

[1] = endpoint: mean survival time, dose: 100.0 mg/kg/injection, schedule: Q04DX003 (ip), vehicle: Klucel (hydroxypropylcellulose) (HPC)
[2] = endpoint: mean survival time, dose: 200.0 mg/kg/injection, schedule: Q04DX003 (ip), vehicle: Klucel (hydroxypropylcellulose) (HPC)
[3] = endpoint: mean survival time, dose: 400.0 mg/kg/injection, schedule: Q04DX003 (ip), vehicle: Klucel (hydroxypropylcellulose) (HPC)
[4] = endpoint: mean survival time, dose: 100.0 mg/kg/injection, schedule: Q04DX003 (ip), vehicle: saline with Tween-80
[5] = endpoint: mean survival time, dose: 25.0 mg/kg/injection, schedule: Q01DX009 (ip), vehicle: Klucel (hydroxypropylcellulose) (HPC)
[6] = endpoint: mean survival time, dose: 50.0 mg/kg/injection, schedule: Q01DX009 (ip), vehicle: Klucel (hydroxypropylcellulose) (HPC)
[7] = endpoint: mean survival time, dose: 100.0 mg/kg/injection, schedule: Q01DX009 (ip), vehicle: Klucel (hydroxypropylcellulose) (HPC)
[8] = endpoint: mean survival time, dose: 25.0 mg/kg/injection, schedule: Q04DX003 (ip), vehicle: saline
[9] = endpoint: mean survival time, dose: 100.0 mg/kg/injection, schedule: Q01DX001 (ip), vehicle: carboxymethylcellulose (CMC)
[10] = endpoint: mean survival time, dose: 200.0 mg/kg/injection, schedule: Q01DX001 (ip), vehicle: carboxymethylcellulose (CMC)
[11] = endpoint: mean survival time, dose: 400.0 mg/kg/injection, schedule: Q01DX001 (ip), vehicle: carboxymethylcellulose (CMC)
[12] = endpoint: mean survival time, dose: 200.0 mg/kg/injection, schedule: Q01DX009 (ip), vehicle: Klucel (hydroxypropylcellulose) (HPC)
[13] = endpoint: mean survival time, dose: 400.0 mg/kg/injection, schedule: Q01DX009 (ip), vehicle: Klucel (hydroxypropylcellulose) (HPC)
[14] = endpoint: mean survival time, dose: 100.0 mg/kg/injection, schedule: Q04DX002 (ip), vehicle: Klucel (hydroxypropylcellulose) (HPC)
[15] = endpoint: mean survival time, dose: 200.0 mg/kg/injection, schedule: Q04DX002 (ip), vehicle: Klucel (hydroxypropylcellulose) (HPC)
[16] = endpoint: mean survival time, dose: 400.0 mg/kg/injection, schedule: Q04DX002 (ip), vehicle: Klucel (hydroxypropylcellulose) (HPC)

Measured: T/C

Clc1cc(C(Cl)(Cl)Cl)c(Cl)cc1C(Cl)(Cl)Cl
inactive: endpoint: mean survival time, dose: 25.0 mg/kg/injection, schedule: Q04DX003 (ip), vehicle: Klucel (hydroxypropylcellulose) (HPC) 93 % of control | endpoint: mean survival time, dose: 50.0 mg/kg/injection, schedule: Q04DX003 (ip), vehicle: Klucel (hydroxypropylcellulose) (HPC) 104 % of control | endpoint: mean survival time, dose: 100.0 mg/kg/injection, schedule: Q01DX009 (ip), vehicle: saline sonified 120 % of control | [1] 97 % of control | endpoint: mean survival time, dose: 200.0 mg/kg/injection, schedule: Q01DX009 (ip), vehicle: saline sonified 104 % of control | [2] 94 % of control | endpoint: mean survival time, dose: 400.0 mg/kg/injection, schedule: Q01DX009 (ip), vehicle: saline sonified 94 % of control | [3] 94 % of control

O=C(/C=C/c1ccc(Cl)c(Cl)c1)c1ccc(Cl)cc1
inactive: endpoint: mean survival time, dose: 6.25 mg/kg/injection, schedule: Q01DX009 (ip), vehicle: saline with Tween-80 97 % of control | endpoint: mean survival time, dose: 6.25 mg/kg/injection, schedule: Q04DX003 (ip), vehicle: saline with Tween-80 110 % of control | endpoint: mean survival time, dose: 12.5 mg/kg/injection, schedule: Q01DX009 (ip), vehicle: saline with Tween-80 97 % of control | endpoint: mean survival time, dose: 12.5 mg/kg/injection, schedule: Q04DX003 (ip), vehicle: saline with Tween-80 96 % of control | endpoint: mean survival time, dose: 25.0 mg/kg/injection, schedule: Q01DX009 (ip), vehicle: saline with Tween-80 95 % of control | endpoint: mean survival time, dose: 25.0 mg/kg/injection, schedule: Q04DX003 (ip), vehicle: saline with Tween-80 94 % of control and 89 % of control | [4] 87 % of control and 88 % of control

COc1cc2c(cc1OC)C1CCN3CCCC3N1CC2 (centres undefined)
inactive: [5] 102 % of control | [6] 96 % of control | [7] 98 % of control | [1] 96 % of control

C=CCOCC(O)CN(C)CCCC (centres undefined)
inactive: [8] 101 % of control | [6] 100 % of control | endpoint: mean survival time, dose: 50.0 mg/kg/injection, schedule: Q04DX003 (ip), vehicle: saline 97 % of control | [7] 94 % of control | endpoint: mean survival time, dose: 100.0 mg/kg/injection, schedule: Q04DX003 (ip), vehicle: saline 103 % of control and 91 % of control

CN(CCO)C(c1ccccc1)c1ccccc1
inactive: endpoint: mean survival time, dose: 100.0 mg/kg/injection, schedule: Q01DX001 (ip), vehicle: saline 100 % of control | endpoint: mean survival time, dose: 200.0 mg/kg/injection, schedule: Q01DX001 (ip), vehicle: saline 94 % of control | endpoint: mean survival time, dose: 400.0 mg/kg/injection, schedule: Q01DX001 (ip), vehicle: saline 103 % of control

COCCCNCC(=O)N1CCN(C(=O)CNCCCOC)CC1
inactive: endpoint: mean survival time, dose: 50.0 mg/kg/injection, schedule: Q01DX001 (ip), vehicle: carboxymethylcellulose (CMC) 92 % of control | [9] 92 % of control | [10] 92 % of control | [11] 95 % of control

O=C(Nc1ccc(S(=O)(=O)F)cc1)c1ccc(C(=O)Nc2ccc(S(=O)(=O)F)cc2)cc1
inactive: [9] 102 % of control | [10] 101 % of control | [11] 96 % of control

Nc1cc(=O)[nH]c(C(F)(F)F)n1
inactive: endpoint: mean survival time, dose: 29.0 mg/kg/injection, schedule: Q01DX Z (ip), vehicle: saline 119 % of control | endpoint: mean survival time, dose: 45.0 mg/kg/injection, schedule: Q01DX Z (ip), vehicle: saline 98 % of control | endpoint: mean survival time, dose: 67.0 mg/kg/injection, schedule: Q01DX Z (ip), vehicle: saline 106 % of control | endpoint: mean survival time, dose: 100.0 mg/kg/injection, schedule: Q01DX Z (ip), vehicle: saline 104 % of control

CCOC(=O)C(c1ccccc1)N(c1ccccc1)S(=O)(=O)c1ccc(C)cc1 (centres undefined)
inactive: endpoint: mean survival time, dose: 100.0 mg/kg/injection, schedule: Q01DX001 (ip), vehicle: other 116 % of control | endpoint: mean survival time, dose: 200.0 mg/kg/injection, schedule: Q01DX001 (ip), vehicle: other 98 % of control | endpoint: mean survival time, dose: 400.0 mg/kg/injection, schedule: Q01DX001 (ip), vehicle: other 101 % of control

CCOC(=O)/C(C#N)=C\c1oc2cc(C)c(C)cc2c1C
inactive: [7] 103 % of control | [1] 106 % of control | [12] 99 % of control | [2] 101 % of control | [13] 94 % of control | [3] 98 % of control

COC(=O)c1ccc(N)cc1O
inactive: [5] 101 % of control | [6] 106 % of control | [7] 99 % of control and 101 % of control | [1] 98 % of control | [12] 105 % of control | [2] 102 % of control | [3] 93 % of control

COc1cc(CC(=O)O)c([N+](=O)[O-])cc1OC
inactive: [9] 97 % of control | [7] 114 % of control | [10] 110 % of control | [12] 103 % of control | [11] 110 % of control | [13] 101 % of control

C[Se]c1nc2c(=O)[nH]cnc2n1C1OC(CO)C(O)C1O (centres undefined)
inactive: endpoint: mean survival time, dose: 100.0 mg/kg/injection, schedule: Q01DX005 (ip), vehicle: saline 103 % of control | endpoint: mean survival time, dose: 200.0 mg/kg/injection, schedule: Q01DX005 (ip), vehicle: saline 111 % of control

COc1cc(N=Nc2cccc([N+](=O)[O-])c2)ccc1N(CCCl)CCCl
inactive: endpoint: median survival time, dose: 100.0 mg/kg/injection, schedule: Q01DX009 (ip), vehicle: Klucel (hydroxypropylcellulose) (HPC) 98 % of control | endpoint: median survival time, dose: 200.0 mg/kg/injection, schedule: Q01DX009 (ip), vehicle: Klucel (hydroxypropylcellulose) (HPC) 100 % of control | endpoint: median survival time, dose: 400.0 mg/kg/injection, schedule: Q01DX009 (ip), vehicle: Klucel (hydroxypropylcellulose) (HPC) 104 % of control

Nc1nc(N)c(N=Nc2ccc(S(=O)(=O)O)cc2)c(N)n1
inactive: [4] 102 % of control | endpoint: mean survival time, dose: 200.0 mg/kg/injection, schedule: Q04DX003 (ip), vehicle: saline with Tween-80 102 % of control | endpoint: mean survival time, dose: 400.0 mg/kg/injection, schedule: Q04DX003 (ip), vehicle: saline with Tween-80 104 % of control

O=C1C2C(C(=O)N1c1ccccc1)N2CCO (centres undefined)
inactive: [7] 107 % of control | [1] 113 % of control | [12] 103 % of control | [2] 108 % of control | [13] 97 % of control | [3] 113 % of control

CS(=O)(=O)OCC(COS(C)(=O)=O)(COS(C)(=O)=O)COS(C)(=O)=O
inactive: [14] 96 % of control | [15] 92 % of control | [16] 107 % of control

CS(=O)(=O)c1ccc2nnnn2n1
inactive: endpoint: mean survival time, dose: 6.25 mg/kg/injection, schedule: Q04DX003 (ip), vehicle: saline 100 % of control | endpoint: mean survival time, dose: 12.5 mg/kg/injection, schedule: Q04DX003 (ip), vehicle: saline 103 % of control | [8] 100 % of control

O=C1OC(c2cccc([N+](=O)[O-])c2)=N/C1=C\c1ccccc1
inactive: endpoint: mean survival time, dose: 100.0 mg/kg/injection, schedule: Q01DX009 (ip), vehicle: saline with Tween-80 94 % of control | endpoint: mean survival time, dose: 200.0 mg/kg/injection, schedule: Q01DX009 (ip), vehicle: saline with Tween-80 102 % of control | endpoint: mean survival time, dose: 400.0 mg/kg/injection, schedule: Q01DX009 (ip), vehicle: saline with Tween-80 94 % of control

CN1C(=O)CN(CCN2CC(=O)N(C)C2=S)C1=S
inactive: [14] 105 % of control | [15] 97 % of control | [16] 90 % of control

O=C(CCN1CCCC1)c1ccc2ccccc2c1
inactive: endpoint: mean survival time, dose: 25.0 mg/kg/injection, schedule: Q04DX002 (ip), vehicle: saline with Tween-80 97 % of control | endpoint: mean survival time, dose: 50.0 mg/kg/injection, schedule: Q04DX002 (ip), vehicle: saline with Tween-80 97 % of control | endpoint: mean survival time, dose: 100.0 mg/kg/injection, schedule: Q04DX002 (ip), vehicle: saline with Tween-80 100 % of control and 86 % of control
